From paper PMC5218480 (PLoS ONE, 2017) come the findings set out here.

The assay concerns MV-4-11 cells. The experiment in a line: Gene expression microarray analysis (Affymetrix PrimeView) and GSEA. The assay is classed as cell-based, human. Set-up: RFU PODN (11730768_x_at) / Fold change /veh PODN (11730768_x_at) / RFU LINC00158 (11744669_a_at) / Fold change /veh LINC00158 (11744669_a_at) / RFU DUSP10 (11751237_a_at) / Fold change /veh DUSP10 (11751237_a_at) / RFU ID3 (11757404_x_at) / Fold change /veh ID3 (11757404_x_at) / RFU PLEKHG5 (11737974_s_at) / Fold change /veh PLEKHG5 (11737974_s_at) / RFU LRRC4B (11730491_at) / Fold change /veh LRRC4B (11730491_at) / RFU GIMAP4 (11747438_a_at) / Fold change /veh GIMAP4 (11747438_a_at) / RFU KRT8 (11758183_x_at) / Fold change /veh KRT8 (11758183_x_at) / RFU CNN1 (11734310_a_at) / Fold change /veh CNN1 (11734310_a_at) / RFU VPS37D (11726825_at) / Fold change /veh VPS37D (11726825_at) / RFU C10orf10 (11716522_x_at) / Fold change /veh C10orf10 (11716522_x_at) / RFU KIR2DL2 /// KIR2DL4 /// KIR2DL5A /// KIR2DL5B /// KIR2DS1 /// KIR2DS2 /// KIR2DS3 /// KIR2DS4 /// KIR3DL3 /// KIR3DL3 /// KIR3DS1 (11738374_at) / Fold change /veh KIR2DL2 /// KIR2DL4 /// KIR2DL5A /// KIR2DL5B /// KIR2DS1 /// KIR2DS2 /// KIR2DS3 /// KIR2DS4 /// KIR3DL3 /// KIR3DL3 /// KIR3DS1 (11738374_at) / RFU C1QL1 (11718748_at) / Fold change /veh C1QL1 (11718748_at) / RFU TMPRSS4 (11747572_a_at) / Fold change /veh TMPRSS4 (11747572_a_at) / RFU HAMP (11756126_x_at) / Fold change /veh HAMP (11756126_x_at) / RFU RNFT2 (11725882_a_at) / Fold change /veh RNFT2 (11725882_a_at) / RFU NR4A2 (11747474_a_at) / Fold change /veh NR4A2 (11747474_a_at) / RFU ABCC12 (11746883_a_at) / Fold change /veh ABCC12 (11746883_a_at) / RFU TMEM136 (11760407_x_at) / Fold change /veh TMEM136 (11760407_x_at) / RFU CLDN22 /// WWC2 (11732394_at) / Fold change /veh CLDN22 /// WWC2 (11732394_at) / RFU HLA-DPB1 (11760878_x_at) / Fold change /veh HLA-DPB1 (11760878_x_at) / RFU SPINT1 (11716480_a_at) / Fold change /veh SPINT1 (11716480_a_at) / RFU GAP43 (11754022_s_at) / Fold change /veh GAP43 (11754022_s_at) / RFU A4GNT (11735810_at) / Fold change /veh A4GNT (11735810_at) / RFU PRB3 (11715151_x_at) / Fold change /veh PRB3 (11715151_x_at) / RFU TUBB4B (11761932_at) / Fold change /veh TUBB4B (11761932_at) / RFU CAPN14 (11732068_a_at) / Fold change /veh CAPN14 (11732068_a_at) / RFU TMCC2 (11721928_a_at) / Fold change /veh TMCC2 (11721928_a_at) / RFU IRGQ (11745062_a_at) / Fold change /veh IRGQ (11745062_a_at) / RFU FAM174B (11720279_a_at) / Fold change /veh FAM174B (11720279_a_at) / RFU TMPRSS4 (11748680_a_at) / Fold change /veh TMPRSS4 (11748680_a_at) / RFU FAM212B (11763350_a_at) / Fold change /veh FAM212B (11763350_a_at) / RFU PLEKHG5 (11743358_a_at) / Fold change /veh PLEKHG5 (11743358_a_at) / RFU ZSCAN30 (11745921_a_at) / Fold change /veh ZSCAN30 (11745921_a_at) / RFU CMKLR1 (11741424_a_at) / Fold change /veh CMKLR1 (11741424_a_at) / RFU LOC101060620 /// MAPK8IP1 (11723275_at) / Fold change /veh LOC101060620 /// MAPK8IP1 (11723275_at) / RFU SPTSSB (11747773_x_at) / Fold change /veh SPTSSB (11747773_x_at) / RFU PRSS12 (11739890_at) / Fold change /veh PRSS12 (11739890_at) / RFU BIN1 (11741810_x_at) / Fold change /veh BIN1 (11741810_x_at) / RFU WNT11 (11732464_a_at) / Fold change /veh WNT11 (11732464_a_at) / RFU C10orf10 (11716521_a_at) / Fold change /veh C10orf10 (11716521_a_at) / RFU C5orf56 (11738089_at) / Fold change /veh C5orf56 (11738089_at) / RFU CYB561 (11721691_x_at) / Fold change /veh CYB561 (11721691_x_at) / RFU ANKRD19P (11752326_a_at) / Fold change /veh ANKRD19P (11752326_a_at) / RFU OR2T12 /// OR2T33 /// OR2T8 (11738714_s_at) / Fold change /veh OR2T12 /// OR2T33 /// OR2T8 (11738714_s_at) / RFU VCAN (11748164_a_at) / Fold change /veh VCAN (11748164_a_at) / RFU JSRP1 (11732532_at) / Fold change /veh JSRP1 (11732532_at) / RFU KRTAP10-11 (11738290_x_at) / Fold change /veh KRTAP10-11 (11738290_x_at) / RFU MYO3A (11730013_a_at) / Fold change /veh MYO3A (11730013_a_at) / RFU EBF3 (11725865_a_at) / Fold change /veh EBF3 (11725865_a_at) / RFU CAMK2N1 (11719241_x_at) / Fold change /veh CAMK2N1 (11719241_x_at) / RFU C5orf56 (11738088_a_at) / Fold change /veh C5orf56 (11738088_a_at) / RFU OLFML3 (11715873_a_at) / Fold change /veh OLFML3 (11715873_a_at) / RFU LOC100653217 /// NTM (11731650_a_at) / Fold change /veh LOC100653217 /// NTM (11731650_a_at) / RFU MAPK11 (11762145_a_at) / Fold change /veh MAPK11 (11762145_a_at) / RFU FIZ1 (11724087_x_at) / Fold change /veh FIZ1 (11724087_x_at) / RFU OASL (11726364_x_at) / Fold change /veh OASL (11726364_x_at) / RFU SOX15 (11748057_x_at) / Fold change /veh SOX15 (11748057_x_at) / RFU CD79A (11719716_a_at) / Fold change /veh CD79A (11719716_a_at) / RFU HIST1H1D (11736915_at) / Fold change /veh HIST1H1D (11736915_at) / RFU CASKIN2 (11723855_a_at) / Fold change /veh CASKIN2 (11723855_a_at) / RFU LOC730098 (11760151_x_at) / Fold change /veh LOC730098 (11760151_x_at) / RFU OR4N2 (11742367_at) / Fold change /veh OR4N2 (11742367_at) / RFU PRRT2 (11749266_a_at) / Fold change /veh PRRT2 (11749266_a_at) / RFU SNX32 (11753110_a_at) / Fold change /veh SNX32 (11753110_a_at) / RFU CDHR5 (11726645_a_at) / Fold change /veh CDHR5 (11726645_a_at) / RFU RCAN1 (11760418_a_at) / Fold change /veh RCAN1 (11760418_a_at) / RFU FAM167A (11723789_a_at) / Fold change /veh FAM167A (11723789_a_at) / RFU FAM26E (11764081_at) / Fold change /veh FAM26E (11764081_at) / RFU ISYNA1 (11749810_s_at) / Fold change /veh ISYNA1 (11749810_s_at) / RFU ACY1 (11761880_at) / Fold change /veh ACY1 (11761880_at) / RFU 11764098_at / Fold change /veh 11764098_at / RFU SAMD14 (11745864_x_at) / Fold change /veh SAMD14 (11745864_x_at) / RFU NPB (11741838_a_at) / Fold change /veh NPB (11741838_a_at) / RFU TMPRSS6 (11731388_a_at) / Fold change /veh TMPRSS6 (11731388_a_at) / RFU KRTAP10-2 (11738614_at) / Fold change /veh KRTAP10-2 (11738614_at) / RFU ARHGAP8 /// PRR5-ARHGAP8 (11727945_x_at) / Fold change /veh ARHGAP8 /// PRR5-ARHGAP8 (11727945_x_at) / RFU KRTAP5-7 /// NADSYN1 (11734609_at) / Fold change /veh KRTAP5-7 /// NADSYN1 (11734609_at) / RFU RASL12 (11751679_a_at) / Fold change /veh RASL12 (11751679_a_at) / RFU CDKN2B (11736163_a_at) / Fold change /veh CDKN2B (11736163_a_at) / RFU PRF1 (11729649_at) / Fold change /veh PRF1 (11729649_at) / RFU, ZNF638 /// ZNF638-IT1 / Fold change vs veh, ZNF638 /// ZNF638-IT1 / RFU, PANK3 / Fold change vs veh, PANK3 / RFU, SH3YL1 / Fold change vs veh, SH3YL1 / RFU, ZEB2 / Fold change vs veh, ZEB2 / RFU, NRIP1 / Fold change vs veh, NRIP1 / RFU, PTTG1IP / Fold change vs veh, PTTG1IP / RFU, CAPN2 / Fold change vs veh, CAPN2 / RFU, MED14 / Fold change vs veh, MED14 / RFU, SNORA58 / Fold change vs veh, SNORA58 / RFU, C1orf63 / Fold change vs veh, C1orf63 / RFU, LRRFIP1 / Fold change vs veh, LRRFIP1 / RFU, NDUFAF7 / Fold change vs veh, NDUFAF7 / RFU, SLC12A2 / Fold change vs veh, SLC12A2 / RFU, IBTK / Fold change vs veh, IBTK / RFU, ESF1 / Fold change vs veh, ESF1 / Fold change vs veh, TMEM50B / RFU, TAOK1 / Fold change vs veh, TAOK1 / RFU, ACBD3 / Fold change vs veh, ACBD3 / RFU, TMA16 / Fold change vs veh, TMA16 / RFU, RWDD3 / Fold change vs veh, RWDD3 / RFU, BCAT1 / Fold change vs veh, BCAT1 / RFU, EDEM3 / Fold change vs veh, EDEM3 / RFU, TMEM33 / Fold change vs veh, TMEM33 / RFU, WDR75 / Fold change vs veh, WDR75 / RFU, AHCTF1 / Fold change vs veh, AHCTF1 / RFU, TFRC / Fold change vs veh, TFRC / RFU, ZDHHC17 / Fold change vs veh, ZDHHC17 / RFU, NOM1 / Fold change vs veh, NOM1 / RFU, ARL8B / Fold change vs veh, ARL8B / RFU, ZBTB11 / Fold change vs veh, ZBTB11 / RFU, TAMM41 / Fold change vs veh, TAMM41 / RFU, KIAA1704 /// LOC100996395 / Fold change vs veh, KIAA1704 /// LOC100996395 / RFU, ING1 / Fold change vs veh, ING1 / RFU, TRMT61B / Fold change vs veh, TRMT61B / RFU, FUBP3 / Fold change vs veh, FUBP3 / RFU, TP53 / Fold change vs veh, TP53 / RFU, TNKS2 / Fold change vs veh, TNKS2 / RFU, ZFP14 / Fold change vs veh, ZFP14 / RFU, ACTR2 / Fold change vs veh, ACTR2 / RFU, PPP3R1 / Fold change vs veh, PPP3R1 / RFU, PIK3R1 / Fold change vs veh, PIK3R1 / RFU, HNRNPA1 / Fold change vs veh, HNRNPA1 / RFU, RNF170 / Fold change vs veh, RNF170 / RFU, ZNF28 / Fold change vs veh, ZNF28 / RFU, RNGTT / Fold change vs veh, RNGTT / RFU, OGT / Fold change vs veh, OGT / RFU, BRD1 / Fold change vs veh, BRD1 / RFU, MARS / Fold change vs veh, MARS / RFU, ZNF655 / Fold change vs veh, ZNF655 / RFU, FAHD1 / Fold change vs veh, FAHD1 / RFU, BDP1 / Fold change vs veh, BDP1 / RFU, LRRCC1 / Fold change vs veh, LRRCC1 / RFU, ARID1A / Fold change vs veh, ARID1A / RFU, ZNF146 / Fold change vs veh, ZNF146 / RFU, ZNF330 / Fold change vs veh, ZNF330 / RFU, GPN3 / Fold change vs veh, GPN3 / RFU, C9orf123 / Fold change vs veh, C9orf123 / RFU, N4BP2L2 / Fold change vs veh, N4BP2L2 / RFU, ARFIP1 / Fold change vs veh, ARFIP1 / RFU, FAM179B / Fold change vs veh, FAM179B / RFU, BCL10 / Fold change vs veh, BCL10 / RFU, UHRF1BP1L / Fold change vs veh, UHRF1BP1L / RFU, BET1 / Fold change vs veh, BET1 / RFU, CNOT2 / Fold change vs veh, CNOT2 / RFU, ZNF268 / Fold change vs veh, ZNF268 / Fold change vs veh, ZNF507 / RFU, DGCR2 / Fold change vs veh, DGCR2 / RFU, WDSUB1 / Fold change vs veh, WDSUB1 / Fold change vs veh, HSP90B1 /// MIR3652 / RFU, ADSS / Fold change vs veh, ADSS / RFU, GK / Fold change vs veh, GK / RFU, ZNF148 / Fold change vs veh, ZNF148 / RFU, TAF9 / Fold change vs veh, TAF9 / RFU, SLC1A5 / Fold change vs veh, SLC1A5 / RFU, SLMO2 / Fold change vs veh, SLMO2 / RFU, ABCC4 / Fold change vs veh, ABCC4 / RFU, LOC101060439 /// RAP1B / Fold change vs veh, LOC101060439 /// RAP1B / RFU, RFX7 / Fold change vs veh, RFX7 / RFU, GTPBP10 / Fold change vs veh, GTPBP10 / RFU, CNEP1R1 / Fold change vs veh, CNEP1R1 / RFU, BIVM-ERCC5 /// ERCC5 / Fold change vs veh, BIVM-ERCC5 /// ERCC5 / RFU, ILF3 / Fold change vs veh, ILF3 / RFU 11762660_at / Fold change /veh 11762660_at / RFU VCAN (11757783_s_at) / Fold change /veh VCAN (11757783_s_at) / RFU DDX43 (11728927_at) / Fold change /veh DDX43 (11728927_at) / RFU KRT8 (11758188_x_at) / Fold change /veh KRT8 (11758188_x_at) / RFU NKD1 (11759106_at) / Fold change /veh NKD1 (11759106_at) / RFU SRD5A1 (11742802_a_at) / Fold change /veh SRD5A1 (11742802_a_at) / RFU TPSAB1 /// TPSB2 (11721975_s_at) / Fold change /veh TPSAB1 /// TPSB2 (11721975_s_at) / RFU GSTM3 (11746129_a_at) / Fold change /veh GSTM3 (11746129_a_at) / RFU IL23R (11737362_x_at) / Fold change /veh IL23R (11737362_x_at) / RFU TMEM51 (11727254_a_at) / Fold change /veh TMEM51 (11727254_a_at) / RFU PIWIL2 (11732686_x_at) / Fold change /veh PIWIL2 (11732686_x_at) / RFU ORM1 (11744905_x_at) / Fold change /veh ORM1 (11744905_x_at) / RFU CCDC152 (11743942_at) / Fold change /veh CCDC152 (11743942_at) / RFU ECM1 (11717891_a_at) / Fold change /veh ECM1 (11717891_a_at) / RFU IL23R (11748794_a_at) / Fold change /veh IL23R (11748794_a_at) / RFU TNFAIP8L3 (11732012_x_at) / Fold change /veh TNFAIP8L3 (11732012_x_at) / RFU MBOAT4 (11741988_at) / Fold change /veh MBOAT4 (11741988_at) / RFU 11764193_at / Fold change /veh 11764193_at / RFU TMEM53 (11763286_at) / Fold change /veh TMEM53 (11763286_at) / RFU MAGEB2 (11727129_at) / Fold change /veh MAGEB2 (11727129_at) / RFU TMEM200A (11744735_a_at) / Fold change /veh TMEM200A (11744735_a_at) / RFU CCDC152 (11751479_a_at) / Fold change /veh CCDC152 (11751479_a_at) / RFU FAM211A (11726209_a_at) / Fold change /veh FAM211A (11726209_a_at) / RFU RGS16 (11746705_a_at) / Fold change /veh RGS16 (11746705_a_at) / RFU VCAN (11755009_s_at) / Fold change /veh VCAN (11755009_s_at) / RFU RHOB (11743442_s_at) / Fold change /veh RHOB (11743442_s_at) / RFU RGS16 (11720943_a_at) / Fold change /veh RGS16 (11720943_a_at) / RFU RGS16 (11720944_at) / Fold change /veh RGS16 (11720944_at) / RFU, VPS4B / Fold change vs veh, VPS4B / RFU, CREB1 / Fold change vs veh, CREB1 / RFU, DNAJC13 / Fold change vs veh, DNAJC13 / RFU, GNAQ / Fold change vs veh, GNAQ / RFU, CDK5R1 / Fold change vs veh, CDK5R1 / RFU, ZRANB3 / Fold change vs veh, ZRANB3 / RFU, CUL4A / Fold change vs veh, CUL4A / RFU, CCNY / Fold change vs veh, CCNY / RFU, UFL1 / Fold change vs veh, UFL1 / RFU, COG3 / Fold change vs veh, COG3 / RFU, DIAPH2 / Fold change vs veh, DIAPH2 / RFU, SKA2 / Fold change vs veh, SKA2 / RFU, AFF3 / Fold change vs veh, AFF3 / RFU, LMF1 / Fold change vs veh, LMF1 / RFU, IPO11 / Fold change vs veh, IPO11 / RFU, DFFB / Fold change vs veh, DFFB / RFU, FOXP1 / Fold change vs veh, FOXP1 / RFU, CARD8 / Fold change vs veh, CARD8 / RFU, STRN3 / Fold change vs veh, STRN3 / RFU, ADK / Fold change vs veh, ADK / RFU, RASSF2 / Fold change vs veh, RASSF2 / RFU, WIPF1 / Fold change vs veh, WIPF1 / RFU, LARP1B / Fold change vs veh, LARP1B / RFU, RASA1 / Fold change vs veh, RASA1 / RFU, RB1 / Fold change vs veh, RB1 / RFU, PPFIA1 / Fold change vs veh, PPFIA1 / RFU, MAT2A / Fold change vs veh, MAT2A / RFU, CCT5 / Fold change vs veh, CCT5 / RFU, WDR92 / Fold change vs veh, WDR92 / RFU, CUX1 / Fold change vs veh, CUX1 / RFU, TTC7A / Fold change vs veh, TTC7A / RFU, TMEM135 / Fold change vs veh, TMEM135 / RFU, DEPTOR / Fold change vs veh, DEPTOR / RFU, CPM / Fold change vs veh, CPM / RFU, DNAJB6 / Fold change vs veh, DNAJB6 / RFU, CACNA2D3 / Fold change vs veh, CACNA2D3 / RFU, DTX4 / Fold change vs veh, DTX4 / RFU, TFCP2 / Fold change vs veh, TFCP2 / RFU, GMCL1 /// GMCL1P1 / Fold change vs veh, GMCL1 /// GMCL1P1 / RFU, AEBP2 / Fold change vs veh, AEBP2 / RFU, SNHG1 /// SNORD22 /// SNORD25 /// SNORD26 /// SNORD27 /// SNORD28 /// SNORD29 /// SNORD31 / Fold change vs veh, SNHG1 /// SNORD22 /// SNORD25 /// SNORD26 /// SNORD27 /// SNORD28 /// SNORD29 /// SNORD31 / Fold change (Aza/veh), C12orf56 (ProbeSet 11735607_a_at) / Fold change (ACY-1035/veh), C12orf56 (ProbeSet 11735607_a_at) / Fold change (Aza/veh), FGFR1OP (ProbeSet 11751329_s_at) / Fold change (ACY-1035/veh), FGFR1OP (ProbeSet 11751329_s_at) / Fold change (Aza/veh), VPS36 (ProbeSet 11739960_a_at) / Fold change (ACY-1035/veh), VPS36 (ProbeSet 11739960_a_at) / RFU SYPL1 (11715823_x_at) / Fold change /veh SYPL1 (11715823_x_at) / RFU IGFBP7 (11715501_s_at) / Fold change /veh IGFBP7 (11715501_s_at) / RFU REEP3 (11722064_at) / Fold change /veh REEP3 (11722064_at) / RFU IGLL1 (11728026_x_at) / Fold change /veh IGLL1 (11728026_x_at): dose or concentration left out as unconfirmed. Particulars: ProbeSet 11755425_a_at; LIST B.

Consider `Nc1ccc(-c2cccs2)cc1NC(=O)c1ccc2c(c1)cc(C1CC1)n2CCN1CCOCC1` [ACY-1035], for which the “RFU, FAM179B” value turned out to be 77.88 RFU.
